These results are taken from patent publication US20240252493A1, “Apelin Receptor Modulators for Treating Age-Related Muscle Conditions” (BIOAGE LABS, INC., priority 2021, published 2024).

The test system of test [1] is tibialis of aged mice. Kind of test: CTX-induced muscle injury: histology (cross-sectional area, centrally nucleated fibers). The test is classed as in vivo. The procedure:
Impairment of muscle regeneration can contribute to age-related muscle weakness. This is particularly true in aged individuals who engage in physical activity. Exercise-induced muscle hypertrophy is linked to the capacity of muscle stem cells to be activated and promote regeneration.
Mice were i.p injected with buprenorphine (Centravet, 0.1 mg/kg) 30 minutes before injury and the day after. The day of the injury, mice were anesthetized with isoflurane inhalation and hindlimbs were shaved. Then, 10 μM of cardiotoxin (CTX, Latoxan, #L8102) was injected through two injections of 25 μl into the left tibialis muscle and two injections of 50 μl into the left gastrocnemius muscle, using a 22-gauge needle (Hamilton). Mice were euthanized 3 and 7 days after injury by cervical dislocation, muscles (PBS- and CTX-injected) were cut in two parts, one being snap frozen into liquid nitrogen for total RNA extraction and the other part being embedded into OCT, frozen in isopentane cooled with liquid nitrogen for histological analysis.
Mouse muscle samples were dissected and cryopreserved in OCT frozen in liquid nitrogen cooled isopentane. Samples were then sectioned at 10 μm on a cryostat and post-fixed with 4% Paraformaldehyde (PFA) for 15min at room temperature. Muscle frozen sections (10 μm) were stained by helaun/eosin or immune-labeled for laminin (Abcam) and embryonic myosin. Briefly, sections were blocked 1 h in PBS plus 4% BS(a), 2% goat serum, 0.01% Triton X-100. Sections were then incubated overnight with primary antibodies. After washes in PBS, sections were incubated 1 h with secondary antibodies anti-Ig2b AF 488 (Life Technology). Slides were finally mounted in ProLong Gold antifade Reagent (Molecular probes by Life Technology) with DAPI. Images were captured using a digital camera (Nanozoomer, Hamamatsu) attached to a motorized fluorescence microscope or using Olympus VS120 Virtual Microscopy Slide Scanning System. The area covered by eMHC-positive fibers and degenerated area was determined manually across the entire sections using the VS-ASW FL software measurement tools. The size of myofibers with central nuclei was calculated from laminin/DAPI staining on all fibers of the section and area determination were performed across the entire sections, using an automated image processing algorithm developed internally using the MetaXpress software (Molecular Devices).

Test [2] concerns Pax7, MyoD, MyoG, Myf5, MyHC3, and MyHC8. Kind of test: CTX-induced muscle injury: transcript levels of regeneration genes. The test is classed as in vivo, mice. The protocol: Impairment of muscle regeneration can contribute to age-related muscle weakness. This is particularly true in aged individuals who engage in physical activity. Exercise-induced muscle hypertrophy is linked to the capacity of muscle stem cells to be activated and promote regeneration. […] Mice were i.p injected with buprenorphine (Centravet, 0.1 mg/kg) 30 minutes before injury and the day after. The day of the injury, mice were anesthetized with isoflurane inhalation and hindlimbs were shaved. Then, 10 μM of cardiotoxin (CTX, Latoxan, #L8102) was injected through two injections of 25 μl into the left tibialis muscle and two injections of 50 μl into the left gastrocnemius muscle, using a 22-gauge needle (Hamilton). Mice were euthanized 3 and 7 days after injury by cervical dislocation, muscles (PBS- and CTX-injected) were cut in two parts, one being snap frozen into liquid nitrogen for total RNA extraction and the other part being embedded into OCT, frozen in isopentane cooled with liquid nitrogen for histological analysis.

Setting [3] is: gastrocnemius, aged mice, 3 or 7 days, apelin 0.5 μmol/kg/day, BGE-105 50 and 200 mg/kg/day.
Setting [4] is: gastrocnemius, young mice, 3 or 7 days, apelin 0.5 μmol/kg/day, BGE-105 50 and 200 mg/kg/day.
The mark [5] stands for this setting: tibialis anterior, aged mice, 7 days, apelin 0.5 μmol/kg/day, BGE-105 50 and 200 mg/kg/day.
[6] abbreviates: tibialis, young mice, 3 or 7 days, apelin 0.5 μmol/kg/day, BGE-105 50 and 200 mg/kg/day.

On to `CSCC[C@H](NC(=O)[C@@H]1CCCN1C(=O)CNC(=O)[C@H](CCCCN)NC(=O)[C@H](Cc1c[nH]cn1)NC(=O)[C@H](CO)NC(=O)[C@H](CC(C)C)NC(=O)[C@H](CCCNC(=N)N)NC(=O)[C@@H]1CCCN1C(=O)[C@H](CCCNC(=N)N)NC(=O)[C@@H]1CCC(=O)N1)C(=O)N1CCC[C@H]1C(=O)N[C@@H](Cc1ccccc1)C(=O)O` [Pyr^1-Apelin-13, reference compound], for which the “amount of centrally nucleated myofibers (CNM)” value in test [1] (18-months old mice after cardiotoxin, apelin 0.5 μmol/kg/day, BGE-105 200 mg/kg/day) is given as “significant increase”. The “cross-sectional area of the tibialis” value in test [1] (aged mice, 3 and 7 days post cardiotoxin, apelin, BGE-105 50 and 200 mg/kg/d) is “significant increase in cross sectional area”. The Pax7 transcript levels entry in test [2] (gastrocnemius, aged (18-month-old) mice, 3 or 7 days, apelin 0.5 μmol/kg/day, BGE-105 50 and 200 mg/kg/day) was “no significant change”; in test [2] (gastrocnemius, young (3-month-old) mice, 3 or 7 days, apelin 0.5 μmol/kg/day, BGE-105 50 and 200 mg/kg/day), “no change”; in test [2] (tibialis anterior, aged (18-month-old) mice, 7 days post cardiotoxin, apelin 0.5 μmol/kg/day, BGE-105 50 and 200 mg/kg/day) it was “significant increase”; in test [2] (tibialis, young (3-month-old) mice, 3 or 7 days, apelin 0.5 μmol/kg/day, BGE-105 50 and 200 mg/kg/day) it was “no change”. Moreover, the MyoD transcript levels result is reported as “significant increase” in test [2] (gastrocnemius, aged mice, 3 and 7 days, apelin 0.5 μmol/kg/day, BGE-105 50 and 200 mg/kg/day); “no change” in test [2] (setting [4]); “significant increase” in test [2] (tibialis anterior, aged mice, 3 and 7 days post cardiotoxin, apelin 0.5 μmol/kg/day, BGE-105 50 and 200 mg/kg/day); “no significant increase” in test [2] (setting [6]). Also, the Myf5 transcript levels result in test [2] (setting [3]) is reported as “no significant change”; in test [2] (setting [4]), “no change”; in test [2] (setting [5]), “significant change”; in test [2] (setting [6]), “no difference”. Moreover, the MyoG transcript levels result in test [2] (setting [3]) is reported as “no significant change”; in test [2] (setting [4]) it was “no change”; in test [2] (setting [5]), “significant increase”; in test [2] (setting [6]), “no difference”. The MyHC8 transcript levels result was “does not show a change” in test [2] (gastrocnemius, aged mice, any time point, any treatment); “non-significant increase” in test [2] (gastrocnemius, young mice, 3 days, apelin 0.5 μmol/kg/day, BGE-105 50 and 200 mg/kg/day); “no significant change” in test [2] (setting [6]). In addition, the MyHC3 transcript levels entry in test [2] (setting [5]) is “significant increase”; in test [2] (setting [6]), “no significant change”.
